Tests used:
[1] = biological target: T1, SOS1 catalytic domain (residues 564-1049) (Homo sapiens, UniProt Q07889); test: Potency Assay: binding affinity to SOS1 using Surface Plasmon Resonance (SPR); parameters: SOS1 catalytic domain (residues 564-1049) immobilized on a sensor chip; details: immobilized SOS1 catalytic domain (residues 564-1049), read-out: SOS1 SPR Equilibrium Kd
T1 sequence (Q07889 564-1049): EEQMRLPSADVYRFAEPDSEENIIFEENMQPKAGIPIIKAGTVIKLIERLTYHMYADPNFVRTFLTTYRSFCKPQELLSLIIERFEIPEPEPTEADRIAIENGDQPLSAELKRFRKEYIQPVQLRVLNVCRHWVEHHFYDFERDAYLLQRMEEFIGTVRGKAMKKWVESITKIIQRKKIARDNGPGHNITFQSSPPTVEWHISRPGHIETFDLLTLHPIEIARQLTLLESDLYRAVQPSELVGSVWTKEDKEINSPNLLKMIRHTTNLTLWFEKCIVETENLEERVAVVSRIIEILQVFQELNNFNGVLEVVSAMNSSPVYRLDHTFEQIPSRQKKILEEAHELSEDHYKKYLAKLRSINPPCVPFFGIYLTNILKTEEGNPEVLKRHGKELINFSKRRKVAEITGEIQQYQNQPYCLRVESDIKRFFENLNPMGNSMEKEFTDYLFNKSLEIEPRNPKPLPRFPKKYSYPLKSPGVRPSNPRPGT
In short: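 Avi-tagged SOS1 catalytic domain captured on streptavidin chip (~6000 RU) in 0.01 M HEPES, 0.15 M NaCl, 0.05% P20. Compound dilution series flowed at 50 μL/min for association, then buffer for dissociation, with double reference subtraction. Kd derived from end-of-association binding response plotted against concentration.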

[2] = biological target: T1, SOS1 catalytic domain (residues 564-1049); test: Mode of Action Assay: inhibition of SOS1 nucleotide exchange activity (SOS1 TR-FRET IC50 Assay)
[3] = test system: PC-9 cells (EGFR Ex19Del); test: Potency Assay: pERK (SOS1 pERK IC50 Assay, AlphaLISA SureFire Ultra p-ERK1/2); format: cell-based; details: Homo sapiens; PC-9 cells (EGFR Ex19Del), 1 hour incubation, AlphaLISA p-ERK1/2; read-out: SOS1 pERK IC50
In short: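 PC-9 (EGFR Ex19Del) cells plated overnight, then treated 1 h at 37° C. with 10-point 3-fold dilutions (top 10 μM final) in duplicate. Lysate pERK1/2 measured by AlphaLISA SureFire Ultra; IC50 from 4-parameter sigmoidal fit.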

Structure (SMILES) | Kd [1] [nM] | IC50 [2] [nM] | IC50 [3] [nM]
C[C@@H](Nc1nc(Cl)nc2c1CN(C(=O)N1CCOc3cccnc31)C2)c1cc(N)cc(C(F)(F)F)c1 [Example 160] | < 400 | < 1000 | < 1000
C[C@@H](Nc1nc(Cl)nc2c1C[C@H](N1CCOCC1)CC2)c1cc(N)cc(C(F)(F)F)c1 (single isomer, unassigned) [Example 169] | < 400 | < 1000 | < 1000
C[C@@H](Nc1nc(Cl)nc2c1CN(C(=O)C13CCN(CC1)CC3)C2)c1cccc(C(F)F)c1F [Example 313] | < 400 | < 1000 | < 1000
C[C@@H](Nc1nc(Cl)nc2c1CN(C(=O)c1ccncn1)CC2)c1cc(N)cc(C(F)(F)F)c1 [Example 233] | > 400 | > 1000 | > 1000
C[C@@H](Nc1nc(Cl)nc2c1CN(C(=O)N1CCOCC1)C2)c1cccc(C(F)F)c1F [Example 537] | < 400 | < 1000 | < 1000
C[C@@H](Nc1nc(Cl)nc2c1C[C@H](N1CCOCC1)CC2)c1cccc(C(F)(F)CO)c1 [Example 437] | < 400 | < 1000 | < 1000
CC(Nc1nc(Cl)nc2c1CN(C(=O)N1CCOCC1)C2)c1ccc(-c2ccccc2CO)s1 (stereo not drawn) [Example 53, [2-chloro-4-[1-[5-[2-(hydroxymethyl)phenyl]-2-thienyl]ethylamino]-5,7-dihydropyrrolo[3,4-d]pyrimidin-6-yl]-morpholino-methanone] | > 400 | > 1000 | > 1000
COC1(C(=O)N2Cc3nc(Cl)nc(N[C@H](C)c4cccc(C(F)F)c4F)c3C2)CCN(CC(F)(F)F)CC1 [Example 344] | < 400 | < 1000 | < 1000
C[C@@H](Nc1nc(Cl)nc2c1CN(C(=O)C1(C)CN(CCF)C1)C2)c1cccc(C(F)F)c1F [Example 342] | < 400 | < 1000 | < 1000
C[C@@H](Nc1nc(Cl)nc2c1CN(C(=O)N1CCNCC1)C2)c1cccc(C(F)(F)F)c1 [Example 364] | < 400 | < 1000 | < 1000
C[C@@H](Nc1nc(Cl)nc2c1CN(C(=O)N1CCCNCC1)C2)c1cccc(C(F)F)c1F [Example 400] | < 400 | < 1000 | < 1000
C[C@@H](Nc1nc(Cl)nc2c1CN(C(=O)C1(N)COC1)C2)c1cccc(C(F)F)c1F [Example 285] | < 400 | < 1000 | < 1000
C[C@@H](Nc1nc(Cl)nc2c1CN(C(=O)N1CCOCC1)C2)c1cccc(CF)c1F [Example 527, 2-chloro-N-[(1R)-1-[2-fluoro-3-(fluoromethyl)phenyl]ethyl]-6-(morpholine-4-carbonyl)-5H,6H,7H-pyrrolo[3,4-d]pyrimidin-4-amine] | < 400 | < 1000 | > 1000
C[C@@H](Nc1nc(Cl)nc2c1CN(C(=O)N1CCNc3ncncc31)C2)c1cccc(C(F)(F)F)c1 [Example 362] | < 400 | < 1000 | < 1000
C[C@@H](Nc1nc(C2CN(C)C2)nc2c1CN(C(=O)N1CCOCC1)C2)c1cccc(C(F)F)c1F [Example 447, (R)-(4-((1-(3-(difluoromethyl)-2-fluorophenyl)ethyl)amino)-2-(1-methylazetidin-3-yl)-5,7-dihydro-6H-pyrrolo[3,4-d]pyrimidin-6-yl)(morpholino)methanone] | < 400 | < 1000 | > 1000
COC1(C(=O)N2Cc3nc(Cl)nc(N[C@H](C)c4cccc(C(F)(F)F)c4)c3C2)CNC1 [Example 316] | < 400 | < 1000 | < 1000
C[C@@H](Nc1nc(Cl)nc2c1CN(C(=O)N1CCN(C)CC1)C2)c1cccc(C(F)(F)CO)c1 [Example 355] | < 400 | < 1000 | > 1000
C[C@@H](Nc1nc(Cl)nc2c1CN(C(=O)C13COC(C1)C3)CC2)c1cc(N)cc(C(F)(F)F)c1 [Example 212] | > 400 | > 1000 | < 1000
C[C@@H](Nc1nc(Cl)nc2c1CN(C(=O)[C@@]13COC[C@@H]1CN(S(C)(=O)=O)C3)CC2)c1cc(N)cc(C(F)(F)F)c1 [Example 222] | > 400 | > 1000 | > 1000

Structure (SMILES) | Kd [1] [nM] | IC50 [2] [nM] | IC50 [3] [nM]
C[C@@H](Nc1nc(Cl)nc2c1CN(C(=O)C13CN(C1)S(=O)(=O)C3)C2)c1cccc(C(F)F)c1F [Example 297] | < 400 | < 1000 | < 1000
C[C@@H](Nc1nc(Cl)nc2c1CN(C(=O)C1(F)CCN(C)CC1)C2)c1cccc(C(F)F)c1F [Example 326] | < 400 | < 1000 | < 1000
C[C@@H](Nc1nc(Cl)nc2c1CN(C(=O)N1CCN(C)C(c3ccncc3)C1)C2)c1cccc(C(F)F)c1F (stereo partly drawn) [Example 417] | < 400 | < 1000 | < 1000
COc1nccnc1C(=O)N1Cc2nc(Cl)nc(N[C@H](C)c3cc(N)cc(C(F)(F)F)c3)c2C1 [Example 75] | < 400 | < 1000 | < 1000
C[C@@H](Nc1nc(Cl)nc2c1CN(C(=O)CC1COCCN1)C2)c1cccc(C(F)F)c1F (stereo partly drawn) [Example 291] | > 400 | < 1000 | < 1000
COC1(C(=O)N2Cc3nc(Cl)nc(N[C@H](C)c4cccc(C(F)F)c4F)c3C2)CCN(C)CC1 [Example 323] | < 400 | < 1000 | < 1000
C[C@@H](Nc1nc(Cl)nc2c1CN(C(=O)[C@@H]1CNC[C@@H]1C)C2)c1cc(N)cc(C(F)(F)F)c1 [Example 264] | < 400 | < 1000 | > 1000
C[C@@H](Nc1nc(Cl)nc2c1CN(C(=O)c1cc(-n3ccnc3)ccn1)C2)c1cc(N)cc(C(F)(F)F)c1 [Example 104] | < 400 | < 1000 | < 1000
C[C@@H](Nc1nc(Cl)nc2c1CN(C(=O)c1cnccn1)CC2)c1cc(N)cc(C(F)(F)F)c1 [Example 246] | > 400 | > 1000 | > 1000
C[C@@H](Nc1nc(Cl)nc2c1CN(C(=O)C1(F)CCNCC1)C2)c1cccc(C(F)F)c1F [Example 284] | < 400 | < 1000 | < 1000
C[C@@H](Nc1nc(Cl)nc2c1CN(S(=O)(=O)C1CC1)CC2)c1cc(N)cc(C(F)(F)F)c1 [Example 452] | < 400 | < 1000 | < 1000
C[C@@H](Nc1nc(Cl)nc2c1CN(C(=O)c1ccc(N3CCOCC3)cn1)CC2)c1cc(N)cc(C(F)(F)F)c1 [Example 254] | > 400 | > 1000 | > 1000
CC(=O)N1Cc2nc(C)nc(N[C@H](C)c3cc(N)cc(C(F)(F)F)c3)c2C1 [Example 120, 1-(4-{[(1R)-1-[3-amino-5-(trifluoromethyl)phenyl]ethyl]amino}-2-methyl-5H,6H,7H-pyrrolo[3,4-d]pyrimidin-6-yl)ethan-1-one] | > 400 | > 1000 | > 1000
CC(=O)N1CCN(C(=O)N2Cc3nc(Cl)nc(N[C@H](C)c4cccc(C(F)F)c4F)c3C2)CC1 [Example 394] | < 400 | < 1000 | < 1000
C[C@@H](Nc1nc(I)nc2c1CN(C(=O)N1CCOCC1)C2)c1cc(N)cc(C(F)(F)F)c1 [Example 134, N-[(1R)-1-[3-amino-5-(trifluoromethyl)phenyl]ethyl]-2-iodo-6-(morpholine-4-carbonyl)-5H,6H,7H-pyrrolo[3,4-d]pyrimidin-4-amine] | < 400 | < 1000 | < 1000
C[C@@H](Nc1nc(Cl)nc2c1CN(C(=O)c1cnc3[nH]ccc3c1)C2)c1cc(N)cc(C(F)(F)F)c1 [Example 91] | > 400 | > 1000 | < 1000
Cc1nc2c(c(N[C@H](C)c3cc(N)cc(C(F)(F)F)c3)n1)CN(C(=O)C1CCOCC1)C2 [Example 119, N-[(1R)-1-[3-amino-5-(trifluoromethyl)phenyl]ethyl]-2-methyl-6-(oxane-4-carbonyl)-5H,6H,7H-pyrrolo[3,4-d]pyrimidin-4-amine] | < 400 | < 1000 | > 1000
C[C@@H](Nc1nc(Cl)nc2c1CN(C(=O)C1CNCCOC1)C2)c1cccc(C(F)F)c1F (stereo partly drawn) [Example 293] | < 400 | < 1000 | < 1000
C[C@@H](Nc1nc(Cl)nc2c1CN(C(=O)N1CC3CC(C1)N3C)C2)c1cccc(C(F)F)c1F [Example 420] | < 400 | < 1000 | < 1000

— patent US20230096028A1, “BICYCLIC HETEROCYCLYL COMPOUNDS AND USES THEREOF” (Revolution Medicines, Inc., priority 2019, published 2023)
